Read-outs that look alike come from different tables or passages of the source.
Experiments:
in vitro [1] = details: monkey (simian)
in vitro [2] = details: cat
FCV = test: Feline corona virus assay in Feline Crandel kidney cells (MTS); format: cell-based; details: read-out: EC50 FCV
Procedure: Feline Crandel kidney cells were seeded in 96-well microtiter plates at 24,000 cells/well. Then, 24 hrs later, an appropriate inoculum of FCV is added together with 5-fold dilutions of the test compounds. After 4 days, a MTS/PMS solution was added to each well. Following a 90 min incubation period at 37° C., the optical density of the wells was read at 498 nm in a microplate reader.

[3] = tested on: SARS virus (strain Frankfurt-1); test: microbe, parasite or virus in culture; format: cell-based, human corona (SARS) virus; details: read-out: EC50 SARS virus
HIV [4] = test: Selection of resistant HIV strains in cell culture; format: cell-based; details: ≧9 weeks of attempts in cell culture
HIV-1 (IIIB) [5] = test: Inhibition of HIV-1 (IIIB)-induced cytopathicity (giant cell formation) in CEM cells; format: cell-based
Procedure: (§1) A variety of glycopeptide antibiotic derivatives of vancomycin, eremomycin and teicoplanin including their aglycon derivatives were evaluated for their inhibitory activity against HIV-1 (IIIB) and HIV-2(ROD) in CEM cell cultures.

HEL cells [6] = details: read-out: CC50 (HEL), HEL cells
HEL cells [7] = tested on: HEL cells
[8] = tested on: human lymphocyte Molt4/clone 8; test: Cytostatic activity assay, Molt4/clone 8 cells; format: cell-based; details: read-out: IC50 Molt4/C8 (compound concentration required to inhibit tumor cell proliferation by 50%)
murine leukemia L1210 = test: Cytostatic activity assay, L1210 cells; format: cell-based; details: read-out: IC50 L1210 (compound concentration required to inhibit tumor cell proliferation by 50%)
HIV [9] = test: Anti-HIV activity in cell culture, HIV type not distinguished; format: cell-based; details: read-out: EC50 against HIV
Procedure: as §1

human lymphocyte CEM = test: Cytostatic activity assay, CEM cells; format: cell-based
HIV-2(ROD) = test: Inhibition of HIV-2 (ROD)-induced cytopathicity (giant cell formation) in CEM cells; format: cell-based; details: read-out: EC50 HIV-2 (concentration required to inhibit HIV-induced giant cell formation by 50%); HIV-2, CEM cell cultures
Procedure: as §1

CMV = test: Anti-CMV assay: virus-induced cytopathicity in HEL cell cultures
HIV-2 (EHO) = details: read-out: EC50 CEM/0 HIV-2 (EHO); CEM/0 cells
Procedure: (§2) Inhibition of HIV-1 (IIIB, HE, HN) and HIV-2(ROD, EHO, RF)-induced cytopathicity in CEM or C8166 or Molt4/C8 cells was measured in microtiter 96-well plates containing ˜3×10^5 CEM cells/ml, infected with 100 CCID50 of HIV per ml and containing appropriate dilutions of the test compounds. After 4 to 5 days of incubation at 37° C. in a CO2-controlled humidified atmosphere, CEM, C8166 or Molt4/C8 giant (syncytium) cell formation was examined microscopically.

HIV-2 (RF) = details: read-out: EC50 CEM/0 HIV-2 (RF); CEM/0 cells
Procedure: as §2

FCK cells = details: read-out: CC50 FCK; FCK cells
Vero cells = details: read-out: CC50 Vero
HIV-1 (IIIB) [10] = test: Inhibition of HIV-1 (IIIB)-induced cytopathicity in C8166 cells; format: cell-based
[11] = tested on: mutant HIV-1 strain Lys-103-Asn; test: Anti-HIV-1 activity against mutant HIV-1 strain Lys-103-Asn in CEM cultures; format: cell-based
HIV-1(HE) = test: Inhibition of HIV-1 (HE)-induced cytopathicity in MOLT4/C8 cells; format: cell-based
[12] = tested on: mutant HIV-1 strain Leu-100-Ile; test: Anti-HIV-1 activity against mutant HIV-1 strain Leu-100-Ile in CEM cultures; format: cell-based
HIV-1 (HE) = test: Inhibition of HIV-1 (HE)-induced cytopathicity in CEM/0 cells; format: cell-based
HIV-1 (MN) = test: Inhibition of HIV-1 (MN)-induced cytopathicity in CEM/0 cells; format: cell-based
[13] = tested on: mutant HIV-1 strain Tyr-181-Cys; test: Anti-HIV-1 activity against mutant HIV-1 strain Tyr-181-Cys in CEM cultures; format: cell-based
VZV (wild-type strains) = test: Anti-VZV assay (wild-type strains): virus-induced cytopathicity in HEL cell cultures; format: cell-based, varicella-zoster virus; details: HEL cell cultures
[14] = tested on: mutant HIV-1 strain Tyr-188-His; test: Anti-HIV-1 activity against mutant HIV-1 strain Tyr-188-His in CEM cultures; format: cell-based
Procedure: as §2

[15] = read-out: EC50 HIV-1 (concentration required to inhibit HIV-induced giant cell formation by 50%), HIV-1, CEM cell cultures
[16] = read-out: IC50 CEM (compound concentration required to inhibit tumor cell proliferation by 50%)
[17] = read-out: EC50 CMV AD-169, CMV strain AD-169, HEL cell cultures
[18] = CEM cultures, wild type in mutant panel, read-out: EC50 HIV-1 IIIB
[19] = CEM/0 cells, read-out: EC50 CEM/0 HIV-1 (IIIB)

Row | Structure (SMILES) | selection of resistant virus strains (HIV [4]) | EC50 (HIV-1 (IIIB) [5]; [15]) | IC50 [8] | IC50 (murine leukemia L1210) | IC50 (human lymphocyte CEM; [16]) | EC50 (HIV-2(ROD)) | EC50 (HIV-2 (EHO)) | EC50 (HIV-2 (RF)) | CC50 (FCK cells) | CC50 (Vero cells) | EC50 (HIV-1 (IIIB) [5]; [18]) | EC50 (HIV-1 (IIIB) [5]; [19]) | EC50 (HIV-1 (IIIB) [10]) | EC50 (FCV; FCV in FCK cells) | EC50 (HIV-1(HE)) | EC50 [12] | EC50 (HIV-1 (HE)) | EC50 ([3]; SARS virus in Vero cells) | EC50 (HIV-1 (MN)) | EC50 [14] | other results
1 | NC1C(=O)NC2Cc3ccc(c(Cl)c3)Oc3cc4cc(c3O)Oc3ccc(cc3Cl)C(O)C(C(=O)O)NC(=O)C(c3ccc(O)c(-c5c(O)cc(O)cc5C(N)C(=O)O)c3)NC(=O)C4NC(=O)C(NC2=O)c2cc(O)cc(c2)Oc2cc1ccc2O (centres unmarked) [Compound 172] |  |  |  |  |  |  |  |  |  |  |  |  |  |  |  |  |  |  |  |  | CC50 (in vitro [1]): > 100 µM; CC50 (in vitro [2]): > 100 µM; EC50 (FCV; Felis catus): ≥ 100 µM; EC50 ([3]; Severe acute respiratory syndrome coronavirus, Vero): 38 µM
2 | Cc1ccnc2c1NC(=O)c1cccnc1N2C1CC1 [nevirapine, reference compound] | easily resulted in the emergence |  |  |  |  |  |  |  |  |  |  |  |  |  |  |  |  |  |  |  | 
3 | N[C@H]1C(=O)N[C@@H]2Cc3ccc(c(Cl)c3)Oc3cc4cc(c3O)Oc3ccc(cc3Cl)[C@@H](O)[C@@H]3NC(=O)[C@H](NC(=O)[C@@H]4NC(=O)[C@@H](NC2=O)c2cc(O)cc(c2)Oc2cc1ccc2O)c1ccc(O)c(c1)-c1c(O)cc(O)cc1[C@@H](C(=O)O)NC3=O [Compound 112, Teicoplanin aglycon] |  | 17 ± 3.5 µM | > 500 µM | > 500 µM | > 500 µM | 20 µM |  |  |  |  |  |  |  |  |  |  |  |  |  |  | CC50 (HEL cells [6]; anti-CMV table): > 200 µM; MTC (HEL) (HEL cells [7]; anti-CMV table): ≧20-200 μM; EC50 (HIV [9]): 17 to 20 µM; IC50 (human lymphocyte CEM; read-out: IC50 (toxicity in cell culture)): > 500 µM; EC50 (CMV; [17]): 32 µM
4 | CCCCc1ccc(CN2CCN(Cc3c(O)cc4c(c3O)-c3cc(ccc3O)C3NC(=O)C5NC(=O)C6NC(=O)C(Cc7ccc(c(Cl)c7)Oc7cc5cc(c7O)Oc5ccc(cc5Cl)C(O)C(NC3=O)C(=O)NC4C(=O)NC)NC(=O)C(N)c3ccc(O)c(c3)Oc3cc(O)cc6c3)CC2)cc1 (centres unmarked) [Compound 31] |  | 1.7 ± 0.42 µM | > 500 µM | 61 ± 10 µM | > 500 µM | 3 ± 1.4 µM | 6.8 ± 0.35 µM | 3.7 ± 1.77 µM | ≥ 20 µM | > 100 µM | 2.8 ± 0.4 µM | 2.8 ± 0.4 µM | 6.6 ± 3.06 µM | > 100 µM | 3.7 ± 0.35 µM | 5.3 ± 2.5 µM | 9.5 ± 3.5 µM | 24 µM | 6.5 ± 0.7 µM | 6 ± 1.4 µM | CC50 (HEL cells [6]; anti-CMV table): > 200 µM; CC50 (HEL cells [6]; anti-VZV table): > 200 µM; MTC (HEL) (HEL cells [7]; anti-CMV table): 20 to 50 µM; MTC (HEL) (HEL cells [7]; anti-VZV table): 20 to 50 µM; EC50 [11]: 6 ± 1.4 µM; EC50 [13]: 8.5 ± 2.1 µM; EC50 (VZV (wild-type strains); VZV strain OKA, read-out: EC50 VZV (OKA)): 0.75 µM; EC50 (VZV (wild-type strains); VZV strain YS, read-out: EC50 VZV (YS)): 0.85 µM; anti-CMV activity (CMV): anti-CMV activity; EC50 (CMV; [17]): ≥ 20 µM; EC50 (CMV; read-out: EC50 CMV Davis, CMV strain Davis, HEL cell cultures): 10 µM
5 | CCCCc1ccc(CN2CCN(Cc3c(O)cc4c(c3O)-c3cc(ccc3O)C3NC(=O)C5NC(=O)C6NC(=O)C(Cc7ccc(c(Cl)c7)Oc7cc5cc(c7O)Oc5ccc(cc5Cl)C(O)C(NC3=O)C(=O)NC4C(=O)NCCCN(C)C)NC(=O)C(N)c3ccc(O)c(c3)Oc3cc(O)cc6c3)CC2)cc1 (centres unmarked) [Compound 30] |  | 3 µM | 108 ± 79 µM | 29 ± 7 µM | > 500 µM | 5 ± 1.4 µM | 11 ± 1.4 µM | 3.7 ± 1.25 µM | ≥ 50 µM | > 100 µM | 2.8 ± 0.4 µM | 2.8 ± 0.4 µM | ≥ 5 µM | 9.2 µM | 4.5 ± 0.7 µM | 6 ± 1.4 µM | 5.5 ± 0.7 µM | 33 µM | 7 µM | 7.5 ± 0.7 µM | 
6 | CN(C)CCCNC(=O)C1NC(=O)C2NC(=O)C(NC(=O)C3NC(=O)C4NC(=O)C(Cc5ccc(c(Cl)c5)Oc5cc3cc(c5O)Oc3ccc(cc3Cl)C2O)NC(=O)C(N)c2ccc(O)c(c2)Oc2cc(O)cc4c2)c2ccc(O)c(c2)-c2c1cc(O)c(CNC1C3CC4CC(C3)CC1C4)c2O (centres unmarked) [Compound 19] | failed | 2.5 ± 0.7 µM | > 500 µM | > 500 µM | > 500 µM | 8 ± 2.8 µM | 15 µM | 9.5 ± 3.5 µM | > 50 µM | > 100 µM | 6 ± 1.4 µM | 6 ± 1.4 µM | 9.5 ± 3.5 µM | 18 µM | 9 ± 1.4 µM | 11.5 ± 2.1 µM | 12 µM | 23 µM | 13 ± 2.1 µM | 11 ± 1.4 µM | EC50 [11]: 8.5 ± 2.1 µM; EC50 [13]: 7.5 ± 3.5 µM
